Patent publication US9376376B2, “Substitute diphenylamine compounds use thereof as antitumor agents” (SINOCHEM CORPORATION, priority 2012, dated 2016)

Legend:
leukemia HL-60 cells = experiment: In vitro cell inhibition assay, CCK-8 method, HL-60; assay type: cell-based, human; settings: for Proliferation inhibitory effect of the compounds on HL-60 cells (% of Control): CCK-8 method
Procedure: (§1) After the cell culture flasks gently shaking, culture fluid was discarded in clean bench. […] Cells were collected and transferred to centrifuge tube. For the non-adherent cells HL-60, CCRF-CEM and MOLT-4, cell flasks were picked up from incubator and then transferred to the centrifuge tubes directly. After cells were collected using centrifuge at 1000 rpm/min for 5 min, the fluid was discarded. Then cells were washed for one time by PBS, discard fluid. Then add some medium, count cells under inverted microscope using blood cell counting plate, according the counting number to making the density of adherent cell was 1×10^5 cells/mL, the non-adherent cell was 2×10^5 cells/mL (the volumes of HL-60, CCRF-CEM, MOLT-4 are smaller than non-adherent cells, these cells added to each well was much more higher). Add 50 μL aliquots to each well of 96-well plates (the density of adherent cells was 5000 cells/well, non-adherent cells was 10000 cells/well). Blank control, Negative control, blank control with compounds and positive control wells were grouped, and three replicate wells were used for each data point in the experiments. Then the cells were cultured in 5% incubator for overnight at 37° C., Then the different concentration compounds were added to each well. After incubation for 48 h, according to the manufacturer's instructions, CCK-8 reagent (10 μl) was added and incubation was continued for a further 2-4 h. The absorbance (A) of each well was read at 450 nm using a plate reader.

[1] = test system: non-small cell lung cancer A549 cells; experiment: In vitro cell inhibition assay, CCK-8 method, A549; assay type: cell-based, human; settings: for Proliferation inhibitory effect of the compounds on A549 cells (% of Control): 48 h incubation
Procedure: as §1

colon cancer COLO-205 = experiment: In vitro cell inhibition assay, CCK-8 method, COLO-205; settings: Homo sapiens, COLO 205, read-out: The half maximal inhibitory concentration (IC50)
cervical cancer Hela = experiment: In vitro cell inhibition assay, CCK-8 method, Hela; assay type: cell-based, human; settings: Homo sapiens, read-out: The half maximal inhibitory concentration (IC50)
Procedure: as §1, with “After incubation for 48 h, according to the manufacturer's instructions, CCK-8 reagent (10 μl) was added and incubation was continued for a further 2-4 h.” left out

breast cancer MDA-MB-231 = experiment: In vitro cell inhibition assay, CCK-8 method, MDA-MB-231; assay type: cell-based, human; settings: Homo sapiens; breast cancer MDA-MB-231, CCK-8 method; read-out: The half maximal inhibitory concentration (IC50)
Procedure: as §1, with “After incubation for 48 h, according to the manufacturer's instructions, CCK-8 reagent (10 μl) was added and incubation was continued for a further 2-4 h.” left out

[2] = test system: non-small cell lung cancer NCI-H358; experiment: In vitro cell inhibition assay, CCK-8 method, NCI-H358; assay type: cell-based, human; settings: Homo sapiens; Non-small-cell carcinoma NCI-H358, CCK-8 method; read-out: The half maximal inhibitory concentration (IC50)
Procedure: as §1, with “After incubation for 48 h, according to the manufacturer's instructions, CCK-8 reagent (10 μl) was added and incubation was continued for a further 2-4 h.” left out

osteosarcoma MG-63 = experiment: In vitro cell inhibition assay, CCK-8 method, MG-63; assay type: cell-based, human; settings: Homo sapiens; osteosarcoma MG-63, CCK-8 method; read-out: The half maximal inhibitory concentration (IC50)
Procedure: as §1, with “After incubation for 48 h, according to the manufacturer's instructions, CCK-8 reagent (10 μl) was added and incubation was continued for a further 2-4 h.” left out

glioma U251 = experiment: In vitro cell inhibition assay, CCK-8 method, U251; assay type: cell-based, human; settings: Homo sapiens, U-251; glioma U251, CCK-8 method; read-out: The half maximal inhibitory concentration (IC50)
Procedure: as §1, with “After incubation for 48 h, according to the manufacturer's instructions, CCK-8 reagent (10 μl) was added and incubation was continued for a further 2-4 h.” left out

hepatocarcinoma SK-HEP-1 = experiment: In vitro cell inhibition assay, CCK-8 method, SK-HEP-1; assay type: cell-based, human; settings: Homo sapiens, SK-HEP1; hepatocarcinoma SK-HEP-1, CCK-8 method; read-out: The half maximal inhibitory concentration (IC50)
Procedure: as §1, with “After incubation for 48 h, according to the manufacturer's instructions, CCK-8 reagent (10 μl) was added and incubation was continued for a further 2-4 h.” left out

prostate cancer PC-3 = experiment: In vitro cell inhibition assay, CCK-8 method, PC-3; assay type: cell-based, human; settings: Homo sapiens; Prostate cancer PC-3, CCK-8 method; read-out: The half maximal inhibitory concentration (IC50)
Procedure: as §1, with “After incubation for 48 h, according to the manufacturer's instructions, CCK-8 reagent (10 μl) was added and incubation was continued for a further 2-4 h.” left out

leukemia MOLT-4 = experiment: In vitro cell inhibition assay, CCK-8 method, MOLT-4; assay type: cell-based, human; settings: Homo sapiens; leukemia MOLT-4, CCK-8 method; read-out: The half maximal inhibitory concentration (IC50)
Procedure: as §1, with “After incubation for 48 h, according to the manufacturer's instructions, CCK-8 reagent (10 μl) was added and incubation was continued for a further 2-4 h.” left out

prostate cancer DU-145 = experiment: In vitro cell inhibition assay, CCK-8 method, DU-145; assay type: cell-based, human; settings: Homo sapiens; Prostate cancer DU-145, CCK-8 method; read-out: The half maximal inhibitory concentration (IC50)
Procedure: as §1, with “After incubation for 48 h, according to the manufacturer's instructions, CCK-8 reagent (10 μl) was added and incubation was continued for a further 2-4 h.” left out

colon cancer HT-29 = experiment: In vitro cell inhibition assay, CCK-8 method, HT-29; assay type: cell-based, human; settings: Homo sapiens; Colorectal Cancer HT-29, CCK-8 method; read-out: The half maximal inhibitory concentration (IC50)
Procedure: as §1, with “After incubation for 48 h, according to the manufacturer's instructions, CCK-8 reagent (10 μl) was added and incubation was continued for a further 2-4 h.” left out

leukemia CCRF-CEM = experiment: In vitro cell inhibition assay, CCK-8 method, CCRF-CEM; assay type: cell-based, human; settings: Homo sapiens, read-out: The half maximal inhibitory concentration (IC50)
Procedure: as §1, with “After incubation for 48 h, according to the manufacturer's instructions, CCK-8 reagent (10 μl) was added and incubation was continued for a further 2-4 h.” left out

[3] = test system: intracranial malignant melanoma A375; experiment: In vitro cell inhibition assay, CCK-8 method, A375; assay type: cell-based, human; settings: Homo sapiens, A-375; melanoma A375, CCK-8 method; read-out: The half maximal inhibitory concentration (IC50)
Procedure: as §1, with “After incubation for 48 h, according to the manufacturer's instructions, CCK-8 reagent (10 μl) was added and incubation was continued for a further 2-4 h.” left out

pancreatic cancer BXPC-3 = experiment: In vitro cell inhibition assay, CCK-8 method, BXPC-3; assay type: cell-based, human; settings: Homo sapiens; pancreatic cancer BXPC-3, CCK-8 method; read-out: The half maximal inhibitory concentration (IC50)
Procedure: as §1, with “After incubation for 48 h, according to the manufacturer's instructions, CCK-8 reagent (10 μl) was added and incubation was continued for a further 2-4 h.” left out

bladder cancer T24 = experiment: In vitro cell inhibition assay, CCK-8 method, T24; assay type: cell-based, human; settings: Homo sapiens; bladder cancer T24, CCK-8 method; read-out: The half maximal inhibitory concentration (IC50)
Procedure: as §1, with “After incubation for 48 h, according to the manufacturer's instructions, CCK-8 reagent (10 μl) was added and incubation was continued for a further 2-4 h.” left out

[4] = test system: nasopharyngeal carcinoma CNE; experiment: In vitro cell inhibition assay, CCK-8 method, CNE; assay type: cell-based, human; settings: Homo sapiens, read-out: The half maximal inhibitory concentration (IC50)
Procedure: as §1, with “After incubation for 48 h, according to the manufacturer's instructions, CCK-8 reagent (10 μl) was added and incubation was continued for a further 2-4 h.” left out

[5] = test system: non-small cell lung cancer NCI-H1650; experiment: In vitro cell inhibition assay, CCK-8 method, NCI-H1650; assay type: cell-based, human; settings: Homo sapiens; Non-small-cell carcinoma NCI-H1650, CCK-8 method; read-out: The half maximal inhibitory concentration (IC50)
Procedure: as §1, with “After incubation for 48 h, according to the manufacturer's instructions, CCK-8 reagent (10 μl) was added and incubation was continued for a further 2-4 h.” left out

Structure (SMILES): N#Cc1c(Cl)c(Cl)c(Nc2c(Cl)cc(Br)cc2Cl)c(C#N)c1Cl [Compound 6-201]
- Proliferation inhibitory effect of the compounds on HL-60 cells (% of Control) (leukemia HL-60 cells; concentration 0.01 μM): 40.59 % of Control
- Proliferation inhibitory effect of the compounds on HL-60 cells (% of Control) (leukemia HL-60 cells; concentration 0.1 μM): 48.61 % of Control
- Proliferation inhibitory effect of the compounds on HL-60 cells (% of Control) (leukemia HL-60 cells; concentration 1 μM): 75.70 % of Control
- Proliferation inhibitory effect of the compounds on HL-60 cells (% of Control) (leukemia HL-60 cells; concentration 10 μM): 86.76 % of Control
- Proliferation inhibitory effect of the compounds on HL-60 cells (% of Control) (leukemia HL-60 cells; concentration 100 μM): 98.14 % of Control
- Proliferation inhibitory effect of the compounds on A549 cells (% of Control) ([1]; CCK-8, 0.01 μM): 14.31 % of Control
- Proliferation inhibitory effect of the compounds on A549 cells (% of Control) ([1]; CCK-8, 0.1 μM): 19.63 % of Control
- Proliferation inhibitory effect of the compounds on A549 cells (% of Control) ([1]; CCK-8, 1 μM): 26.90 % of Control
- Proliferation inhibitory effect of the compounds on A549 cells (% of Control) ([1]; CCK-8, 10 μM): 60.23 % of Control
- Proliferation inhibitory effect of the compounds on A549 cells (% of Control) ([1]; CCK-8, 100 μM): 83.86 % of Control

Structure (SMILES): COc1cc2ncnc(Nc3ccc(F)c(Cl)c3)c2cc1OCCCN1CCOCC1 [Gefitinib]
- IC50 (colon cancer COLO-205): 6970 nM

Structure (SMILES): CC(=O)O[C@H]1C(=O)[C@@]2(C)[C@H]([C@H](OC(=O)c3ccccc3)[C@]3(O)C[C@H](OC(=O)[C@H](O)[C@@H](NC(=O)c4ccccc4)c4ccccc4)C(C)=C1C3(C)C)[C@]1(OC(C)=O)CO[C@@H]1C[C@@H]2O [Taxol]
- IC50 (cervical cancer Hela): < 10 nM
- IC50 (breast cancer MDA-MB-231): 2020 nM
- IC50 [2]: 278 nM
- IC50 (osteosarcoma MG-63): < 10 nM
- IC50 (glioma U251): > 100000 nM
- IC50 (colon cancer COLO-205): < 10 nM
- IC50 (leukemia HL-60 cells; Homo sapiens, leukemia HL-60, CCK-8 method, read-out: The half maximal inhibitory concentration (IC50)): < 10 nM
- IC50 (hepatocarcinoma SK-HEP-1): 47 nM
- IC50 (prostate cancer PC-3): 69000 nM
- IC50 (leukemia MOLT-4): < 10 nM
- IC50 (prostate cancer DU-145): 17400 nM
- IC50 (colon cancer HT-29): > 100000 nM
- IC50 (leukemia CCRF-CEM): < 10 nM
- IC50 [3]: 55300 nM
- IC50 (pancreatic cancer BXPC-3): < 10 nM
- IC50 (bladder cancer T24): 3540 nM
- IC50 ([1]; Homo sapiens, Non-small-cell carcinoma A549, CCK-8 method, read-out: The half maximal inhibitory concentration (IC50)): 83500 nM
- IC50 [4]: > 100000 nM
- IC50 [5]: 420 nM
